Measurements reported in patent US6004960A, “Pyridazinones as inhibitors of cyclooxygenase-2” (Merck Frosst Canada, Inc., priority 1998, dated 1999).

Key:
COX-2 [1] = target: T1, COX-2 (Homo sapiens, UniProt P35354); experiment: Human whole blood assay, COX-2 (LPS-induced PGE2 production); type: cell-based; design: incubation of human whole blood with LPS, which induces COX-2; from tissue; host or cells: fresh human whole blood (volunteers), incubated with LPS; settings: LPS-induced PGE2, 24 hours at 37° C, read-out: COX-2 (IC50 μM) HWB
T1 sequence (P35354 18-604): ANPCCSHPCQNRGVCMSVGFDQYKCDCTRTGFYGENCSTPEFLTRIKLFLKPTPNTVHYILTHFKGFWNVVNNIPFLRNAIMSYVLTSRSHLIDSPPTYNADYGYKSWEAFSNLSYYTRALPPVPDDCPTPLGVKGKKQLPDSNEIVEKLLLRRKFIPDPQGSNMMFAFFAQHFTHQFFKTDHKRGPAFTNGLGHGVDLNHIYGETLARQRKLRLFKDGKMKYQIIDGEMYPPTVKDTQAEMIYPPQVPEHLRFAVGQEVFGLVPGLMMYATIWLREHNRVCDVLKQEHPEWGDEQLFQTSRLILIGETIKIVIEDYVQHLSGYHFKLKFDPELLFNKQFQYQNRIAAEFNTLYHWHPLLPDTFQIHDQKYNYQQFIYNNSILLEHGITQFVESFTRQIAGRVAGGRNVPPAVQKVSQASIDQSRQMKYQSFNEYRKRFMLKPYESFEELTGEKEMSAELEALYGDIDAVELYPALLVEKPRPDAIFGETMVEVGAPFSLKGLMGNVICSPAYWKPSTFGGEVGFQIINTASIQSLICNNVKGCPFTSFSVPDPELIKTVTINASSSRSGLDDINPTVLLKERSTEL
From the text: As well, platelets in whole blood contain a large amount of the COX-1 enzyme. Immediately following blood clotting, platelets are activated through a thrombin-mediated mechanism. This reaction results in the production of thromboxane B2 (TxB2) via activation of COX-1. Thus, the effect of test compounds on TxB2 levels following blood clotting can be examined and used as an index for COX-1 activity. Therefore, the degree of selectivity by the test compound can be determined by measuring the levels of PGE2 after LPS induction (COX-2) and […] following blood clotting (COX-1) in the same assay.
A. COX-2 (LPS-induced PGE2 production)
Fresh blood is collected in heparinized tubes by venipuncture from both male and female volunteers. The subjects have no apparent inflammatory conditions and have not taken any NSAIDs for at least 7 days prior to blood collection. Plasma is immediately obtained from a 2mL blood aliquot to use as blank (basal levels of PGE2). The remaining blood is incubated with LPS (100 μg/ml final concentration, Sigma Chem, #L-2630 from E. coli; diluted in 0.1% BSA (Phosphate buffered saline) for 5 minutes at room temperature. Five hundred μL aliquots of blood are incubated with either 2μL of vehicle (DMSO) or 2 μL of a test compound at final concentrations varying from 10nM to 30 μM for 24 hours at 37° C. At the end of the incubation, the blood is centrifuged at 12,000×g for 5 minutes to obtain plasma. A 100 μL aliquot of plasma is mixed with 400 μL of methanol for protein precipitation. The supernatant is obtained and is assayed for PGE2 using a radioimmunoassay kit (Amersham, RPA#530) after conversion of PGE2 to its methyl oximate derivative according to the manufacturer's procedure. […]

COX-2 [2] = target: T1, COX-2; experiment: Whole cell assay for COX-2 using CHO transfected cell line (CHO [hCOX-2]), PGE2; type: cell-based; design: expressed in transfected cells; host or cells: CHO (Chinese hamster ovary), stably transfected with pCDNAIII vector; CHO [hCOX-2]; settings: CHO [hCOX-2] cells, 10 μM AA
Experimental: Chinese hamster ovary (CHO) cell lines which have been stably transfected with an eukaryotic expression vector pCDNAIII containing either the human COX-1 or COX-2 cDNA's are used for the assay. These cell lines are referred to as CHO [hCOX-1] and CHO [hCOX-2], respectively. […] Drugs to be tested are dissolved in DMSO to 66.7-fold the highest test drug concentration. […] Cells (0.3×10^6 cells in 200 p) are preincubated with 3 AIl of the test drug or DMSO vehicle for 15 min at 37° C. […] Cells are then challenged in the presence or absence of drug with the AA/HBSS solution to yield a final concentration of 0.5 μM AA in the CHOhCOX-1] assay and a final concentration of 10 μM AA in the CHO [hCOX-2] assay. […] The samples are centrifuged at 300×g at 4° C. for 10 min, and an aliquot of the clarified supernatant is appropriately diluted for the determination of PGE2 levels using an enzyme-liked immunoassay for PGE2 (Correlate PGE2 enzyme immunoassay kit, Assay Designs, Inc.). Cyclooxygenase activity in the absence of test compounds is determined as the difference in PGE2 levels of cells challenged with arachidonic acid versus the PGE2 levels in cells mock-challenged with ethanol vehicle. Inhibition of PGE2 synthesis by test compounds is calculated as a percentage of the activity in the presence of drug versus the activity in the positive control samples.
In the assay, inhibition is determined by measuring the amount of prostaglandin E2 (PGE2) synthesized in the presence of arachidonic acid, cyclooxygenase-I or cyclooxygenase-2 and a putative inhibitor.

CS(=O)(=O)c1ccc(-c2cnn(Cc3ccccc3)c(=O)c2-c2cccnc2)cc1 [Example 28, 2-Benzyl-5-(4-methylsulfonyl)phenyl-4-(3-pyridyl)-2H-pyridazin-3-one]
IC50 (COX-2 [1]): 1.5 µM | IC50 (COX-2 [2]): 0.13 µM
